One may read the IC50 as the concentration at which inhibition is half-maximal.

The source of these data is patent US9579407B2, “Radiolabeled compounds and their use as radiotracers for quantitative imaging of phosphodiesterase (PDE10A) in mammals” (TAKEDA PHARMACEUTICAL COMPANY LIMITED, priority 2011, dated 2017).

Some results are limits rather than exact numbers.

Data set [1] is described as follows: Plasma metabolite analysis (parent fraction) during PET, [11C]compound. It is filed as in vivo, rhesus monkeys. The following applies: venous plasma, i.v. How it is done:
(§1) PET measurements were performed with the High Resolution Research Tomograph system (HRRT) (Siemens Molecular Imaging) using two rhesus monkeys with body weight of 4450 g and 5000 g. The monkeys were maintained under gas anesthesia of sevoflurane, oxygen, and medical air during PET measurements. 123-min dynamic brain PET data were acquired in List mode after 150 and 162 MBq of [^11C] compound of Example 2 and 159 and 162 MBq of [^11C] compound of Example 3 were injected intravenously. List-mode data were reconstructed using the ordinary Poisson-3D-ordered subset expectation maximization (OP-3D-OSEM) algorithm, with 10 iterations and 16 subsets including modelling of the point spread function (PSF). During PET acquisition, venous blood sampling was performed for the metabolite analysis.
(§2) Regions of interest (ROIs) for Caudate, Putamen, Nucleus Accumbens, Thalamus, Cerebellum, Frontal cortex, Temporal cortex, and whole brain were delineated on MRI/PET coregistered images using PMOD software (v3.1 PMOD Technologies Ltd. Zurich, Switzerland). Time activity curves were generated for these regions. The uptake was expressed as % ID (=total radioactivity in the brain (MBq)*100/injected radioactivity (MBq)) or % SUV (=radioactivity in the region (MBq/cc)*100/(injected radioactivity (MBq)/Body weight (g))). Metabolite fraction in the plasma was measured by a radio LC analysis. The results are shown in FIGS. 3, 4, 5, 6, 7, 8, 9 and 10.

Data set [2] can be described thus: PET brain uptake (whole brain and regional), [11C]compound. The format is in vivo, rhesus monkeys. Particulars: for regional brain uptake: regions of interest on MRI/PET coregistered images; for time at which whole brain uptake decreased to half / time at which whole brain uptake reached peak / whole brain uptake at the peak: i.v.; for time at which whole brain uptake reached peak: 123-min PET; for whole brain uptake at the peak: % ID = total radioactivity in the brain*100/injected radioactivity. How it is done: as §1
(§3) T1-weighted MR images were acquired with an MRI system GE 1.5 T Signa unit (Milwaukee, Wis., USA). The T1 sequence was a 3-D SPGR protocol with the following settings: repetition time (TR) 21 ms, flip angle 35°, FOV 12.8, matrix 256×256×128, 128×1.0 mm slices.
as §2

Data set [3] deals with PDE10A. Kind of data set: PET specific radioligand binding in putamen (PDE10A rich region) vs cerebellum, [11C]compound. The format is in vivo, rhesus monkeys. Particulars: for ratio of the specific binding between the uptake in the target region and the uptake in the cerebellum: increased up to, during 123 min PET measurements; for time of peak of specific binding in Putamen: uptake of the putamen minus the cerebellum. How it is done:
(§4) Since the compounds of the present invention show efficacy exhibition, they are useful as PET radioligands of PDE10A.
as §1, §2

Data set [4] is described as follows: Plasma metabolite analysis (parent fraction) during PET, [18F]compound. The format is in vivo, cynomolgus monkeys. The following applies: venous plasma, i.v. As to the method:
(§5) PET measurements were performed with the High Resolution Research Tomograph system (HRRT) (Siemens Molecular Imaging) using three cynomolgus monkeys with body weight of 3730 g to 4845 g. The monkeys were maintained under gas anesthesia of sevoflurane, oxygen, and medical air during PET measurements.
(§6) 180-min dynamic brain PET data were acquired in List mode after 148 and 157 MBq of [^18F]compound of Example 119 and 159 and 163 MBq of [^18F]compound of Example 120 were injected intravenously. List-mode data were reconstructed using the ordinary Poisson-3D-ordered subset expectation maximization (OP-3D-OSEM) algorithm, with 10 iterations and 16 subsets including modelling of the point spread function (PSF). During PET acquisition, venous blood sampling was performed for the metabolite analysis.
as §2, with “(v3.2PMOD” for “(v3.1 PMOD”, “13, 14, 15, 16, 17, 18, 19” for “3, 4, 5, 6, 7, 8, 9”, “20.” for “10.”

A short description of data set [5]: PET brain uptake (whole brain and regional), [18F]compound. The format is in vivo, cynomolgus monkeys. The following applies: for regional brain uptake: regions of interest on MRI/PET coregistered images; for time at which whole brain uptake decreased to half / time at which whole brain uptake reached peak / whole brain uptake at the peak: i.v.; for time at which whole brain uptake reached peak: 180-min PET; for whole brain uptake at the peak: % ID = total radioactivity in the brain*100/injected radioactivity. As to the method:
as §5, §6, §3
as §2, with “(v3.2PMOD” for “(v3.1 PMOD”, “13, 14, 15, 16, 17, 18, 19” for “3, 4, 5, 6, 7, 8, 9”, “20.” for “10.”

Data set [6] deals with PDE10A. Put plainly: PET specific radioligand binding in putamen (PDE10A rich region) vs cerebellum, [18F]compound. It is filed as in vivo, cynomolgus monkeys. The following applies: for ratio of the specific binding between the uptake in the target region and the uptake in the cerebellum: increased up to; for time of peak of specific binding in Putamen: uptake of the putamen minus the cerebellum. How it is done:
as §4, §5, §6
as §2, with “(v3.2PMOD” for “(v3.1 PMOD”, “13, 14, 15, 16, 17, 18, 19” for “3, 4, 5, 6, 7, 8, 9”, “20.” for “10.”

The next data set concerns the target Human PDE10A enzyme (Homo sapiens (Human), UniProt Q9Y233). Kind of data set: PDE10A enzyme inhibition (SPA, [3H]cGMP). It is filed as biochemical. Particulars: unlabeled compound. How it is done:
Many of the compounds within the present invention had activity in inhibiting the human PDE10A enzyme in the aforementioned assay, generally with an […] of less than about 0.1 μM. Such a result is indicative of the intrinsic activity of the compounds in use as inhibitors of the PDE10A enzyme.
Human PDE10A enzyme was generated from Sf9 or COS-7 cells transfected with the full-length gene. Cloned enzyme was extracted from homogenized cell pellets. The extracted enzyme from sf9 cells was partially purified using His-tag affinity column. The enzyme was stored at −70° C. until use. PDE activity was measured using a SPA (Scintillation Proximity Assay) (GE Healthcare). To evaluate the inhibitory activity, 10 μL of serial diluted compounds were incubated with 20 μL of PDE enzyme in assay buffer (50 mM HEPES-NaOH, 8.3 mM MgCl2, 1.7 mM EGTA, 0.1% BSA (pH 7.4)) for 30 min. at room temperature. Final concentration of DMSO in the assay was 1% as compounds were tested in duplicate in 96-well half-area plates (Corning). To start the reaction, 10 μL of substrate [^3H] cGMP (25 or 50 nM; enclosed in SPA kits from GE Healthcare or purchased from PerkinElmer, respectively) was added for a final assay volume of 40 μL. After 60 min incubation at room temperature, yttrium SPA beads containing zinc sulphate were added (20 μL at 6 mg/mL) to terminate the PDE reaction. After being settled for 60 min., assay plates were counted in a scintillation counter (PerkinElmer) to allow calculation of inhibition rate. IC50 values were calculated on the basis of 0% control wells with DMSO and 100% control wells without enzyme.

For data set [7], the system named is Human PDE1A, 2A3, 3A, 4D2, 5A1, 6AB, 7B, 8A1, 9A2, and 11A4 enzymes. Kind of data set: PDE family enzyme inhibition selectivity assay (SPA). The format is biochemical. Particulars: ratio of IC50 for each PDE other than PDE10A to IC50 for PDE10A. How it is done: The PDE10A IC50 is a measure of the ability of the test compound to inhibit the action of the PDE10A enzyme. To determine the selectivity of the test compounds for PDE10A, the IC50 of the compound was determined for PDEs 1-9, and 11.
Human PDE1A, 3A, 4D2, 5A1, 7B, 8A1, 9A2, and 11A4 enzymes were purchased from BPS Bioscience. Human PDE6AB enzyme was purchased from Scottish Biomedical. Human PDE2A3 was generated from Sf9 transfected with the full-length gene in house. PDE activities were measured using a SPA (Scintillation Proximity Assay) (PerkinElmer). To evaluate the inhibitory activity, 10 μL of serial diluted compounds were incubated with 20 μL of PDE enzyme in assay buffer (50 mM HEPES-NaOH, 8.3 mM MgCl2, 1.7 mM EGTA, 0.1% BSA (pH 7.4)) for 30 min. at room temperature. Final concentration of DMSO in the assay was 1% as compounds were tested in duplicate in 96-well half-area plates (Corning). To start the reaction, 10 μL of substrate [^3H] cGMP (PerkinElmer) for PDE1A, 2A3, 5A1, 6AB, 9A2, and 11A4 or [^3H] cAMP (PerkinElmer) for PDE3A, 4D2, 7B, and 8A1 was added for a final assay volume of 40 μL. After 60 min incubation at room temperature, yttrium SPA beads containing zinc sulphate were added (20 μL at 6 mg/mL) to terminate the PDE reaction. After being settled for 60 min., assay plates were counted in a scintillation counter (PerkinElmer) to allow calculation of inhibition rate. IC50 values were calculated on the basis of 0% control wells with DMSO and 100% control wells without enzyme. Selectivity was defined as the ratio of IC50 for each PDE other than PDE10A to IC50 for PDE10A.

Human PDE10A enzyme, sequence (Q9Y233 267-1055): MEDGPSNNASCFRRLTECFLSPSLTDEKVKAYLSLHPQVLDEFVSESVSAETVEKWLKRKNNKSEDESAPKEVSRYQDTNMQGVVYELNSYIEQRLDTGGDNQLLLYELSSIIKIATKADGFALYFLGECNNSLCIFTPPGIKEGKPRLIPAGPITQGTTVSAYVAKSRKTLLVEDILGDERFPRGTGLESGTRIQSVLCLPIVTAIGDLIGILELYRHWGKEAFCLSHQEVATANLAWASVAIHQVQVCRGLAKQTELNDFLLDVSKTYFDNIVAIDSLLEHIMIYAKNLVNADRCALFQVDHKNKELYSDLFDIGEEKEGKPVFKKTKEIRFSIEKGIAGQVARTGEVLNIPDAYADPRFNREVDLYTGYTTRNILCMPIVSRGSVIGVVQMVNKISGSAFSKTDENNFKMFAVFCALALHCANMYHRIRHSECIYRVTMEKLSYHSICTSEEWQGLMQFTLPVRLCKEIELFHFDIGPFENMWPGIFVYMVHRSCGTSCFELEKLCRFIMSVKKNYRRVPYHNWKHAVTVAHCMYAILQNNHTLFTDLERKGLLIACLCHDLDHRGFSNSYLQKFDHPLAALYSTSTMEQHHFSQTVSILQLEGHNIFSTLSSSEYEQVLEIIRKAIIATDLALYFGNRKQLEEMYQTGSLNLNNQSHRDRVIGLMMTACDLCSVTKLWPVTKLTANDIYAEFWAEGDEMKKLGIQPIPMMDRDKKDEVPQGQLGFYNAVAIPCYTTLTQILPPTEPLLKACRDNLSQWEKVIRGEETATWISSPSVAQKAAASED

As for `[11CH3]Oc1cn(-c2ccc(N3CC(F)(F)C3)cc2F)nc(-c2ccnn2-c2ccccc2)c1=O` [Example 2], the “fraction of parent compound” value in data set [1] (at 30 min) was 70-76%. Moreover, in data set [1] (at 90 min), the “fraction of parent compound” value is recorded as 52-58%. In data set [2], the regional brain uptake entry is “Putamen showed highest uptake, followed by Caudate, Nuclear Accumbens and Thalamus”; the “time at which whole brain uptake decreased to half” value lay within 60 to 66 min; the “time at which whole brain uptake reached peak” value is 2.5 to 7.5 min; the “whole brain uptake at the peak” value was 3.3-5.1 % ID. Moreover, in the data set with PDE10A [3], the “ratio of the specific binding between the uptake in the target region and the uptake in the cerebellum” value (“ratio” for short) is reported as 2.5-2.7; the “time of peak of specific binding in Putamen” value (from here on “time of peak … in Putamen”) is given as 48 min.

Regarding `[11CH3]Oc1cn(-c2ccc(C3CCOCC3)cc2F)nc(-c2ccnn2-c2ccccc2)c1=O` [Example 3, 1-[2-Fluoro-4-(tetrahydro-2H-pyran-4-yl)phenyl]-5-[^11C]methoxy-3-(1-phenyl-1H-pyrazol-5-yl)pyridazin-4(1H)-one], in data set [1] (at 30 min), the “fraction of parent compound” value is 56-57%. The “fraction of parent compound” value in data set [1] (at 90 min) is recorded as 45-53%. Further, in data set [2], the regional brain uptake result is “Putamen showed highest uptake, followed by Caudate, Nuclear Accumbens and Thalamus”; the “time at which whole brain uptake decreased to half” value was determined as 30 min; the “time at which whole brain uptake reached peak” value is on record as 2 min; the “whole brain uptake at the peak” value was 3.3-4.1 % ID. Further, in the data set on PDE10A [3], the “ratio” value is recorded as “approximately six”; the “time of peak … in Putamen” value is recorded as 42 min.

With `[2H]C([2H])(F)Oc1cn(-c2ccc(C3CCOCC3)cc2F)nc(-c2ccnn2-c2ccccc2)c1=O` [Example 119, 5-([^18F]fluoro-methyloxy-d2)-1-(2-fluoro-4-(tetrahydro-2H-pyran-4-yl)phenyl)-3-(1-phenyl-1H-pyrazol-5-yl)pyridazin-4(1H)-one], the “fraction of parent compound” value in data set [4] (at 60 min) is 62-71%. Further, the “fraction of parent compound” value in data set [4] (at 180 min) is 60-63%. Further, in data set [5], the regional brain uptake entry was “Putamen showed highest uptake, followed by Caudate, Nuclear Accumbens and Thalamus”; the “time at which whole brain uptake decreased to half” value worked out at 23 min; the “time at which whole brain uptake reached peak” value was 2.5 min; the “whole brain uptake at the peak” value is given as 5.2-5.7 % ID. In addition, the “ratio” value in the data set with PDE10A [6] (during 47-65 min PET measurements) was 3.0-3.9. In the data set with PDE10A [6], the “time of peak … in Putamen” value is 18.5 to 29 min.

On to `[2H]C([2H])(F)C([2H])([2H])Oc1cn(-c2ccc(C3CCOCC3)cc2F)nc(-c2ccnn2-c2ccccc2)c1=O` [Example 120, 5-(2-[^18F]fluoro-ethyloxy-d4)-1-(2-fluoro-4-(tetrahydro-2H-pyran-4-yl)phenyl)-3-(1-phenyl-1H-pyrazol-5-yl)pyridazin-4(1H)-one], for which the “fraction of parent compound” value in data set [4] (at 60 min) is 64-74%. Further, in data set [4] (at 180 min), the “fraction of parent compound” value is 51-72%. In data set [5], the regional brain uptake result is “Putamen showed highest uptake, followed by Caudate, Nuclear Accumbens and Thalamus”; the “time at which whole brain uptake decreased to half” value fell in the range of 23 to 35 min; the “time at which whole brain uptake reached peak” value lay within 2.5 to 4.5 min; the “whole brain uptake at the peak” value was 3.6 % ID. In addition, the “ratio” value with PDE10A [6] (during 65-75 min PET measurements) is on record as 1.5-1.9. Moreover, the “time of peak … in Putamen” value with PDE10A [6] lay in the range of 35 to 41 min.

`COc1cn(-c2ccc(C3CCOCC3)cc2F)nc(-c2ccnn2-c2ccccc2)c1=O` [Reference Example 16, 1-[2-Fluoro-4-(tetrahydro-2H-pyran-4-yl)phenyl]-5-methoxy-3-(1-phenyl-1H-pyrazol-5-yl)pyridazin-4(1H)-one]: at Human PDE10A enzyme, the IC50 was less than 1 nM. Moreover, the “Selectivity over other PDEs” value in data set [7] is >1000-fold.

The compound `COc1cn(-c2ccc(N3CC(F)(F)C3)cc2F)nc(-c2ccnn2-c2ccccc2)c1=O` [Reference Example 18, 1-[4-(3,3-Difluoroazetidin-1-yl)-2-fluorophenyl]-5-methoxy-3-(1-phenyl-1H-pyrazol-5-yl)pyridazin-4(1H)-one] came in with an IC50 on Human PDE10A enzyme of less than 1 nM. Moreover, the “Selectivity over other PDEs” value in data set [7] is reported as >1000-fold.

`[2H]C([2H])(F)Oc1cn(-c2ccc(C3CCOCC3)cc2F)nc(-c2ccnn2-c2ccccc2)c1=O` [Reference Example 122, 5-(Fluoromethoxy-d2)-1-{2-fluoro-4-(tetrahydro-2H-pyran-4-yl)phenyl}-3-(1-phenyl-1H-pyrazol-5-yl)pyridazin-4(1H)-one] displayed an IC50 against Human PDE10A enzyme of less than 10 nM. Further, the “Selectivity over other PDEs” value in data set [7] was >1000-fold.

At Human PDE10A enzyme, `[2H]C([2H])(F)C([2H])([2H])Oc1cn(-c2ccc(C3CCOCC3)cc2F)nc(-c2ccnn2-c2ccccc2)c1=O` [Reference Example 123, 5-(2-Fluoroethoxy-d4)-1-{2-fluoro-4-(tetrahydro-2H-pyran-4-yl)phenyl}-3-(1-phenyl-1H-pyrazol-5-yl)pyridazin-4(1H)-one] had a concentration for half-maximal inhibition (IC50) of less than 10 nM. In data set [7], the “Selectivity over other PDEs” value is given as >100-fold.
